# How the values were obtained:
# [1] = target: T1, calcineurin (CN) catalytic subunit A (CNA); serine/threonine-protein phosphatase 2B catalytic subunit alpha isoform (Homo sapiens, UniProt Q08209); assay: microscale thermophoresis (MST); supported by HDX-MS, CETSA and in vitro activation of CN; type: binding
# T1 construct: gene PPP3CA; human CNA/CNB (CNA: M1-N370, CNB: 16-170), His-tagged, E. coli; with calcineurin B (CNB)
# [2] = target: T2, calcineurin (CN) catalytic subunit A (CNA), CN-R254K (Homo sapiens, UniProt Q08209, R254K); assay: microscale thermophoresis (MST); type: binding
# T2 construct: gene PPP3CA; human CNA/CNB (CNA: M1-N370, CNB: 16-170); with calcineurin B (CNB)
smiles,measurement,setting,value
C=C(C)[C@@H]1[C@H]2OC(=O)[C@@H]1[C@]1(O)[C@H]3O[C@H]3[C@]3(CO3)[C@]1(C)[C@@H]2O [tutin],Kd,[1],0.28 ± 0.27 µM
same,Kd,[2],7.64 ± 4.48 µM
